The source made the active and inactive calls.
Key:
Type in all cases: functional, organism-based
[1] = test system: Rattus norvegicus; assay: Analgesic activity in rat model of spared nerve injury-induced neuropathic pain assessed as increase in paw withdrawal threshold at 20 mg/kg, po administered via gavage once daily for 3 days by Von frey filament test
[2] = test system: Rattus norvegicus; assay: Analgesic activity in rat model of spared nerve injury-induced neuropathic pain assessed as increase in paw withdrawal threshold at 10 mg/kg, po administered via gavage once daily for 3 days by Von frey filament test
[3] = test system: Rattus norvegicus; assay: Analgesic activity in rat model of chronic constriction injury-induced neuropathic pain assessed as increase in paw withdrawal threshold at 9.5 mg/kg, po administered via gavage once daily for 3 days by Von frey filament test
[4] = test system: Rattus norvegicus; assay: Analgesic activity in rat model of spared nerve injury-induced neuropathic pain assessed as increase in paw withdrawal threshold at 15 mg/kg, po administered via gavage once daily for 3 days by Von frey filament test
[5] = test system: Rattus norvegicus; assay: Analgesic activity in rat model of chronic constriction injury-induced neuropathic pain assessed as increase in paw withdrawal threshold at 10 mg/kg, po administered via gavage once daily for 3 days by Von frey filament test

## Cc1c(C(=O)N2CCC(c3nc(C#N)co3)CC2)cnn1-c1nn2cccc2c(=O)[nH]1
[1]
  Activity: Active

## Cc1c(C(=O)N2CCC2c2ccc(F)nc2)cnn1-c1nn2cccc2c(=O)[nH]1 (configuration not stated)
[2]
  Activity: Active

## Cc1c(C(=O)N2CCN(C3CC(F)(F)C3)CC2)cnn1-c1nn2cccc2c(=O)[nH]1
[3]
  Activity: Active

## Cc1c(C(=O)N2CC3CC(C2)N3C2CC2)cnn1-c1nn2cccc2c(=O)[nH]1
[4]
  Activity: Active

## Cc1c(C(=O)N2CCN(C3CC(F)(F)C3)CC2)nnn1-c1nn2cccc2c(=O)[nH]1
[3]
  Activity: Active

## Cc1c(C(=O)N2CCN(C3CCC3(F)F)CC2)nnn1-c1nn2cccc2c(=O)[nH]1 (configuration not stated)
[2]
  Activity: Active

## Cc1c(C(=O)N2CC(c3ccnc(F)c3)C2)cnn1-c1nn2cccc2c(=O)[nH]1
[5]
  Activity: Active
